Assay results from patent US20240368194A1, “IRAK4 DEGRADATION AGENT, AND PREPARATION METHOD THEREFOR AND USE THEREOF” (SHANGHAI LEADINGTAC PHARMACEUTICAL CO. LTD., priority 2021, published 2024).

What was measured:
IRAK4 kinase = IRAK4 kinase (Homo sapiens (Human), UniProt Q9NWZ3); experiment: IRAK4 kinase activity test (KinEASE-STK S1 HTRF kit); type: biochemical; settings: 2.5 nM IRAK4 kinase, 7 μM ATP, 37° C. 120 min
Procedure, shortened: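 Human IRAK4 (2.5 nM) with 1 μM biotinylated peptide substrate and 7 μM ATP, incubated 120 min at 37 °C. HTRF read-out (Eu anti-phospho-Ser/Thr antibody, XL665-streptavidin; 665/620 nm ratio) after 1 h at room temperature. IC50 from inhibition relative to control by non-linear fit of log concentration.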

[1] = biological target: IRAK4 protein in THP-1 cells (Homo sapiens (Human), UniProt Q9NWZ3); experiment: Degradation of IRAK4 in THP-1 cells, human IRAK4 AlphaLISA assay; type: cell-based; settings: 24 h incubation
Procedure, shortened: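 THP-1 cells, after overnight plating, exposed 24 h at 37 °C to compound at 0.03-3000 nM final. Lysate IRAK4 read by Western blot and by AlphaLISA (acceptor beads 10 μg/mL, biotin anti-IRAK4 1 nM, donor beads 40 μg/mL, 23 °C). DC50 and Dmax from log concentration-response fit.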

Chain of IRAK4 kinase (Q9NWZ3 whole entry): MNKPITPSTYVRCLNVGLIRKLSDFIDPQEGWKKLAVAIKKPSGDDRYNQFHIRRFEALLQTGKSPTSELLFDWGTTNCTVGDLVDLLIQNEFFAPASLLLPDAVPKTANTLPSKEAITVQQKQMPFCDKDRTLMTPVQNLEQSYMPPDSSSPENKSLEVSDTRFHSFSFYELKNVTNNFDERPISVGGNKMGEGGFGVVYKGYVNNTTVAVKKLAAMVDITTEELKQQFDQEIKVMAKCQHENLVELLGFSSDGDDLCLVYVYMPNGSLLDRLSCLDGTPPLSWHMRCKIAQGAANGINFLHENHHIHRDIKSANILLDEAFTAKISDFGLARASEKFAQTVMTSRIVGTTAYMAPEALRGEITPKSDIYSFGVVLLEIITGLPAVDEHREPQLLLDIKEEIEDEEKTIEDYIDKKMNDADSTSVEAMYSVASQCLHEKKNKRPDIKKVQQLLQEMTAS
Chain of IRAK4 protein in THP-1 cells (Q9NWZ3 whole entry): as above

Row | IC50 (IRAK4 kinase) [nM] | DC50 [1] [nM] | Dmax [1] [%] | SMILES
1 | 36.7 | 5.94 | 82.1 | Cc1ccc(C(=O)N2CCC3(CCC(CN4CCC(n5cc(NC(=O)c6cnn7ccc(N8CC9(COC9)C8)nc67)c(C(F)F)n5)CC4)CC3)CC2)cc1N1CCC(=O)NC1=O [Example 50, N-(3-(difluoromethyl)-1-(1-((3-(3-(2,4-dioxotetrahydropyrimidin-1(2H)-yl)-4-methylbenzoyl)-3-azaspiro[5.5]undecan-9-yl)methyl)piperidin-4-yl)-1H-pyrazol-4-yl)-5-(2-oxa-6-azaspiro[3.3]heptan-6-yl)pyrazolo[1,5-a]pyrimidine-3-carboxamide]
2 | 21.3 | 7.52 | 79.2 | Cc1ccc(C(=O)N2CCC3(CCC(CN4CCC(n5cc(NC(=O)c6cnn7ccc(N8CCS(=O)(=O)CC8)nc67)c(C(F)F)n5)CC4)CC3)CC2)cc1N1CCC(=O)NC1=O [Example 55, N-(3-(difluoromethyl)-1-(1-((3-(3-(2,4-dioxotetrahydropyrimidin-1(2H)-yl)-4-methylbenzoyl)-3-azaspiro[5.5]undecan-9-yl)methyl)piperidin-4-yl)-1H-pyrazol-4-yl)-5-(1,1-dioxothiomorpholinyl)pyrazolo[1,5-a]pyrimidine-3-carboxamide]
3 | 3.87 | 0.41 | 96.4 | Cc1ccc(C(=O)N2CCC3(CCC(CN4CCC(n5cc(NC(=O)c6cnn7ccc(N8CCC[C@H](O)C8)nc67)c(C(F)F)n5)CC4)CC3)CC2)cc1N1CCC(=O)NC1=O [Example 56, (S)-N-(3-(difluoromethyl)-1-(1-((3-(3-(2,4-dioxotetrahydropyrimidin-1(2H)-yl)-4-methylbenzoyl)-3-azaspiro[5.5]undecan-9-yl)methyl)piperidin-4-yl)-1H-pyrazol-4-yl)-5-(3-hydroxypiperidin-1-yl)pyrazolo[1,5-a]pyrimidine-3-carboxamide]
4 | 4.57 | 0.58 | 96.6 | O=C1CCN(c2cc(C(=O)N3CCC4(CCC(CN5CCC(n6cc(NC(=O)c7cnn8ccc(N9CCC[C@H](O)C9)nc78)c(C(F)F)n6)CC5)CC4)CC3)ccc2Cl)C(=O)N1 [Example 57, (S)-N-(1-(1-((3-(4-chloro-3-(2,4-dioxotetrahydropyrimidin-1(2H)-yl)benzoyl)-3-azaspiro[5.5]undecan-9-yl)methyl)piperidin-4-yl)-3-(difluoromethyl)-1H-pyrazol-4-yl)-5-(3-hydroxypiperidin-1-yl)pyrazolo[1,5-a]pyrimidine-3-carboxamide]
5 | 5.93 | 7.47 | 96.1 | N[C@H]1CCCN(c2ccn3ncc(C(=O)Nc4cn(C5CCN(CC6CCC7(CC6)CCN(C(=O)c6ccc(Cl)c(N8CCC(=O)NC8=O)c6)CC7)CC5)nc4C(F)F)c3n2)C1 [Example 64, (S)-5-(3-aminopiperidin-1-yl)-N-(1-(1-((3-(4-chloro-3-(2,4-dioxotetrahydropyrimidin-1(2H)-yl)benzoyl)-3-azaspiro[5.5]undecan-9-yl)methyl)piperidin-4-yl)-3-(difluoromethyl)-1H-pyrazol-4-yl)pyrazolo[1,5-a]pyrimidine-3-carboxamide]

Further lines, the compound ahead of its results:

Row | SMILES | IC50 (IRAK4 kinase) [nM] | DC50 [1] [nM] | Dmax [1] [%]
6 | O=C1CCN(c2cc(C(=O)N3CCC4(CCC(CN5CCC(n6cc(NC(=O)c7cnn8ccc(N9CCOCC9)nc78)c(C(F)F)n6)CC5)CC4)CC3)ccc2OC(F)(F)F)C(=O)N1 [Example 52, N-(3-(difluoromethyl)-1-(1-((3-(3-(2,4-dioxotetrahydropyrimidin-1(2H)-yl)-4-(trifluoromethoxy)benzoyl)-3-azaspiro[5.5]undecan-9-yl)methyl)piperidin-4-yl)-1H-pyrazol-4-yl)-5-morpholinopyrazolo[1,5-a]pyrimidine-3-carboxamide] | 23.8 | 18.4 | 95.4
7 | COc1ccc(C(=O)N2CCC3(CCN(CCCN4CCC(n5cc(NC(=O)c6cnn7ccc(N8CCOCC8)nc67)c(C(F)F)n5)CC4)CC3)CC2)cc1N1CCC(=O)NC1=O [Example 60, N-(3-(difluoromethyl)-1-(1-(3-(9-(3-(2,4-dioxotetrahydropyrimidin-1(2H)-yl)-4-methoxybenzoyl)-3,9-diazaspiro[5.5]undecan-3-yl)propyl)piperidin-4-yl)-1H-pyrazol-4-yl)-5-morpholinopyrazolo[1,5-a]pyrimidine-3-carboxamide] | 21.9 | 9.36 | 96.6
8 | COc1ccc(C(=O)N2CCC3(CCN(CCCCN4CCC(n5cc(NC(=O)c6cnn7ccc(N8CCOCC8)nc67)c(C(F)F)n5)CC4)CC3)CC2)cc1N1CCC(=O)NC1=O [Example 61, N-(3-(difluoromethyl)-1-(1-(4-(9-(3-(2,4-dioxotetrahydropyrimidin-1(2H)-yl)-4-methoxybenzoyl)-3,9-diazaspiro[5.5]undecan-3-yl)butyl)piperidin-4-yl)-1H-pyrazol-4-yl)-5-morpholinopyrazolo[1,5-a]pyrimidine-3-carboxamide] | 9.06 | 29 | 87.9
9 | O=C1CCN(c2cc(C(=O)N3CCC4(CCC(CN5CCC(n6cc(NC(=O)c7cnn8ccc(N9CCS(=O)(=O)CC9)nc78)c(C(F)F)n6)CC5)CC4)CC3)ccc2Cl)C(=O)N1 [Example 63, N-(1-(1-((3-(4-chloro-3-(2,4-dioxotetrahydropyrimidin-1(2H)-yl)benzoyl)-3-azaspiro[5.5]undecan-9-yl)methyl)piperidin-4-yl)-3-(difluoromethyl)-1H-pyrazol-4-yl)-5-(1,1-dioxothiomorpholinyl)pyrazolo[1,5-a]pyrimidine-3-carboxamide] | 36.2 | 9.18 | 79.3
